Measurements taken from the NIST ThermoML archive (doi:10.1016/j.jct.2006.05.004).

Columns and labels:
[1] = excess molar enthalpy (molar enthalpy of mixing); xn = mol fraction of the nth substance listed; settings: 298.15 K, 101 kPa, Liquid
[2] = xn = mol fraction of the nth substance listed; settings: 298.15 K, 101 kPa, Liquid

BrCCCCCCBr [1,6-dibromohexane] + CCCC(=O)OC
Settings | excess molar enthalpy [kcal/mol] | mass density [kg/m3]
[1], x2 = 0.0838 | 0.018 | –
[1], x2 = 0.1878 | 0.0309 | –
[1], x2 = 0.2949 | 0.0395 | –
[1], x2 = 0.3961 | 0.0423 | –
[1], x2 = 0.4591 | 0.0405 | –
[1], x2 = 0.5094 | 0.0383 | –
[1], x2 = 0.5864 | 0.0329 | –
[1], x2 = 0.6566 | 0.0287 | –
[1], x2 = 0.734 | 0.0232 | –
[1], x2 = 0.8128 | 0.0172 | –
[1], x2 = 0.8885 | 0.0108 | –
[1], x2 = 0.9526 | 0.00392 | –
[2], x2 = 0.0254 | – | 1587.59
[2], x2 = 0.0833 | – | 1555.83
[2], x2 = 0.1606 | – | 1512
[2], x2 = 0.2243 | – | 1474.58
[2], x2 = 0.291 | – | 1434.05
[2], x2 = 0.3545 | – | 1394.06
[2], x2 = 0.4193 | – | 1351.87
[2], x2 = 0.5445 | – | 1265.85
[2], x2 = 0.6016 | – | 1224.52
[2], x2 = 0.6573 | – | 1182.86
[2], x2 = 0.7029 | – | 1147.73
[2], x2 = 0.7563 | – | 1105.29
[2], x2 = 0.8125 | – | 1059.12
[2], x2 = 0.9056 | – | 978.87

BrCCBr [1,2-dibromoethane] + CCCC(=O)OC
Settings | excess molar enthalpy [kcal/mol] | mass density [kg/m3]
[1], x2 = 0.0509 | 0.0049 | –
[1], x2 = 0.1042 | 0.00772 | –
[1], x2 = 0.1621 | 0.00858 | –
[1], x2 = 0.2266 | 0.00748 | –
[1], x2 = 0.2928 | 0.00418 | –
[1], x2 = 0.3635 | -0.00086 | –
[1], x2 = 0.4243 | -0.00672 | –
[1], x2 = 0.4796 | -0.0115 | –
[1], x2 = 0.537 | -0.0148 | –
[1], x2 = 0.6008 | -0.0165 | –
[1], x2 = 0.6755 | -0.0168 | –
[1], x2 = 0.7537 | -0.0152 | –
[1], x2 = 0.8373 | -0.0118 | –
[1], x2 = 0.9188 | -0.00707 | –
[2], x2 = 0.0456 | – | 2090.91
[2], x2 = 0.0934 | – | 2013.52
[2], x2 = 0.138 | – | 1943.4
[2], x2 = 0.1885 | – | 1866.04
[2], x2 = 0.2437 | – | 1784.45
[2], x2 = 0.2925 | – | 1714.77
[2], x2 = 0.3454 | – | 1641.47
[2], x2 = 0.4047 | – | 1562.1
[2], x2 = 0.5193 | – | 1415.94
[2], x2 = 0.5812 | – | 1340.87
[2], x2 = 0.6461 | – | 1264.87
[2], x2 = 0.7118 | – | 1190.49
[2], x2 = 0.7767 | – | 1119.58
[2], x2 = 0.8458 | – | 1046.47
[2], x2 = 0.9209 | – | 970.06

BrCCCCCBr [1,5-dibromopentane] + CCCC(=O)OC
Settings | excess molar enthalpy [kcal/mol] | mass density [kg/m3]
[1], x2 = 0.0788 | 0.015 | –
[1], x2 = 0.1742 | 0.0254 | –
[1], x2 = 0.2762 | 0.0325 | –
[1], x2 = 0.374 | 0.0341 | –
[1], x2 = 0.461 | 0.0309 | –
[1], x2 = 0.5359 | 0.0249 | –
[1], x2 = 0.5693 | 0.0214 | –
[1], x2 = 0.6313 | 0.0152 | –
[1], x2 = 0.7089 | 0.0093 | –
[1], x2 = 0.7917 | 0.00514 | –
[1], x2 = 0.8725 | 0.00258 | –
[1], x2 = 0.946 | 0.00131 | –
[2], x2 = 0.0754 | – | 1642.8
[2], x2 = 0.1463 | – | 1593.12
[2], x2 = 0.2087 | – | 1548.48
[2], x2 = 0.2699 | – | 1503.86
[2], x2 = 0.3456 | – | 1447.37
[2], x2 = 0.454 | – | 1363.99
[2], x2 = 0.573 | – | 1268.9
[2], x2 = 0.6279 | – | 1223.66
[2], x2 = 0.6902 | – | 1171.2
[2], x2 = 0.7398 | – | 1128.65
[2], x2 = 0.7971 | – | 1078.54
[2], x2 = 0.8961 | – | 989.47
[2], x2 = 0.9526 | – | 937.22

BrCCBr [1,2-dibromoethane] + CCC(=O)OC
Settings | excess molar enthalpy [kcal/mol] | mass density [kg/m3]
[1], x1 = 0.0552 | 0.0107 | –
[1], x1 = 0.1177 | 0.0166 | –
[1], x1 = 0.18 | 0.0207 | –
[1], x1 = 0.2446 | 0.0215 | –
[1], x1 = 0.3072 | 0.0203 | –
[1], x1 = 0.3659 | 0.0179 | –
[1], x1 = 0.4203 | 0.0141 | –
[1], x1 = 0.4702 | 0.00939 | –
[1], x1 = 0.4789 | 0.00657 | –
[1], x1 = 0.5086 | 0.00466 | –
[1], x1 = 0.5255 | 0.00246 | –
[1], x1 = 0.5837 | -0.00251 | –
[1], x1 = 0.6456 | -0.00514 | –
[1], x1 = 0.7119 | -0.00614 | –
[1], x1 = 0.7852 | -0.00672 | –
[1], x1 = 0.8597 | -0.00547 | –
[1], x1 = 0.9321 | -0.00287 | –
[2], x2 = 0.0544 | – | 2090.48
[2], x2 = 0.1086 | – | 2015.14
[2], x2 = 0.1617 | – | 1942.18
[2], x2 = 0.213 | – | 1872.81
[2], x2 = 0.2714 | – | 1794.99
[2], x2 = 0.3254 | – | 1724.12
[2], x2 = 0.4447 | – | 1570.72
[2], x2 = 0.5056 | – | 1494.18
[2], x2 = 0.561 | – | 1425.55
[2], x2 = 0.6166 | – | 1357.57
[2], x2 = 0.6838 | – | 1276.41
[2], x2 = 0.743 | – | 1205.94
[2], x2 = 0.8086 | – | 1129
[2], x2 = 0.8715 | – | 1056.36
[2], x2 = 0.9358 | – | 982.68

BrCCCCBr [1,4-dibromobutane] + CCC(=O)OC
Settings | excess molar enthalpy [kcal/mol] | mass density [kg/m3]
[1], x2 = 0.074 | 0.0219 | –
[1], x2 = 0.1513 | 0.0366 | –
[1], x2 = 0.2294 | 0.0459 | –
[1], x2 = 0.305 | 0.0495 | –
[1], x2 = 0.3744 | 0.0494 | –
[1], x2 = 0.4375 | 0.0468 | –
[1], x2 = 0.4948 | 0.0428 | –
[1], x2 = 0.546 | 0.0378 | –
[1], x2 = 0.5911 | 0.0327 | –
[1], x2 = 0.6302 | 0.0274 | –
[1], x2 = 0.6539 | 0.0245 | –
[1], x2 = 0.665 | 0.0245 | –
[1], x2 = 0.6965 | 0.0181 | –
[1], x2 = 0.712 | 0.016 | –
[1], x2 = 0.7721 | 0.00839 | –
[1], x2 = 0.8331 | 0.00425 | –
[1], x2 = 0.8921 | 0.00227 | –
[1], x2 = 0.9477 | 0.000956 | –
[2], x2 = 0.0733 | – | 1763.63
[2], x2 = 0.1392 | – | 1712.4
[2], x2 = 0.2065 | – | 1658.81
[2], x2 = 0.2725 | – | 1604.96
[2], x2 = 0.3378 | – | 1550.31
[2], x2 = 0.3974 | – | 1499.32
[2], x2 = 0.4596 | – | 1444.8
[2], x2 = 0.5225 | – | 1388.41
[2], x2 = 0.638 | – | 1281.23
[2], x2 = 0.6944 | – | 1227.08
[2], x2 = 0.7466 | – | 1175.87
[2], x2 = 0.7998 | – | 1122.53
[2], x2 = 0.8489 | – | 1072.14
[2], x2 = 0.8998 | – | 1018.87
[2], x2 = 0.9505 | – | 964.61

BrCCCBr [1,3-dibromopropane] + COC(C)=O
Settings | excess molar enthalpy [kcal/mol] | mass density [kg/m3]
[1], x2 = 0.08 | 0.034 | –
[1], x2 = 0.1613 | 0.0558 | –
[1], x2 = 0.2406 | 0.0748 | –
[1], x2 = 0.3177 | 0.0867 | –
[1], x2 = 0.3862 | 0.091 | –
[1], x2 = 0.4435 | 0.0934 | –
[1], x2 = 0.4958 | 0.0935 | –
[1], x2 = 0.5468 | 0.0894 | –
[1], x2 = 0.5909 | 0.0838 | –
[1], x2 = 0.6336 | 0.078 | –
[1], x2 = 0.6509 | 0.0747 | –
[1], x2 = 0.6702 | 0.0722 | –
[1], x2 = 0.7094 | 0.0627 | –
[1], x2 = 0.7687 | 0.0505 | –
[1], x2 = 0.8316 | 0.0365 | –
[1], x2 = 0.8928 | 0.0229 | –
[1], x2 = 0.9501 | 0.0112 | –
[2], x2 = 0.0821 | – | 1900.75
[2], x2 = 0.1456 | – | 1845.13
[2], x2 = 0.2131 | – | 1784.87
[2], x2 = 0.2862 | – | 1717.43
[2], x2 = 0.3503 | – | 1656.68
[2], x2 = 0.412 | – | 1596.53
[2], x2 = 0.4744 | – | 1533.88
[2], x2 = 0.535 | – | 1471.53
[2], x2 = 0.5898 | – | 1413.65
[2], x2 = 0.6476 | – | 1350.9
[2], x2 = 0.7027 | – | 1289.26
[2], x2 = 0.7565 | – | 1227.76
[2], x2 = 0.8086 | – | 1166.64
[2], x2 = 0.8558 | – | 1109.89
[2], x2 = 0.905 | – | 1048.62
[2], x2 = 0.9514 | – | 989.83
